Source: paper PMC11040653, “Fluorescent carbazole-derived α-amino acids: structural mimics of tryptophan” (Chemical Science, 2024)
No end group written: not given here. 13e = not defined here

Columns and labels:
[1] = ethanol; standard reference; ref 9 (supplement); cited from earlier work
Protocol: page 24: 5. Photophysical Data for a-Amino Acids 13a–e Absorption and emission data were recorded using the following instruments: 1. UV-Vis spectra were recorded on a Perkin Elmer Lamda 25 instrument. Fluorescence spectra were recorded on a Shimadzu RF-5301PC spectrofluorophotometer. Emission data were measured using excitation and emission bandpass filters of 3 nm. 2. Both UV-Vis spectra and fluorescence spectra were recorded on a Horiba Duetta Fluorescence and Absorbance spectrometer. Absorbance spectra were recorded with an integration time of 0.05 s, and a band pass of 5 nm. Fluorescence ...

[2] = UV-Vis absorption and fluorescence emission spectra of amino acids 13a–e; assay type: physicochemical; conditions: for λ Abs / λ Em / λ Em (second wavelength): 5 μM; for λ Abs: UV-Vis; for λ Em / λ Em (second wavelength): fluorescence
Protocol: (§1) Next, the photophysical properties of amino acids 13a–13e were measured.[22,23] As it was important to identify an amino acid that could be used as a probe for different applications, the photophysical properties were assessed in both an organic solvent (methanol) and water (Table 2).
(§2) 5. Photophysical Data for a-Amino Acids 13a–e
(§3) Absorption and emission data were recorded using the following instruments:
(§4) 1. UV-Vis spectra were recorded on a Perkin Elmer Lamda 25 instrument. Fluorescence spectra were recorded on a Shimadzu RF-5301PC spectrofluorophotometer. Emission data were measured using excitation and emission bandpass filters of 3 nm.
2. Both UV-Vis spectra and fluorescence spectra were recorded on a Horiba Duetta Fluorescence and Absorbance spectrometer. Absorbance spectra were recorded with an integration time of 0.05 s, and a band pass of 5 nm. Fluorescence spectra were recorded with and excitation and emission band pass of 5 nm, an integration time of 2 s, and with detector accumulations set to 1. […]

[3] = Fluorescence quantum yield (comparative method, anthracene and L-tryptophan standards) and brightness; assay type: physicochemical; conditions: for Φ F (quantum yield): anthracene and L-tryptophan as standards, five concentrations, absorption below 0.1
Protocol: as §1, §2, §3, §4
2. Both UV-Vis spectra and fluorescence spectra were recorded on a Horiba Duetta Fluorescence and Absorbance spectrometer. Absorbance spectra were recorded with an integration time of 0.05 s, and a band pass of 5 nm. Fluorescence spectra were recorded with and excitation and emission band pass of 5 nm, an integration time of 2 s, and with detector accumulations set to 1.
Quantum yields were determined using a comparative method against two standards. Anthracene (Φ = 0.27, in ethanol) and ʟ-tryptophan (Φ = 0.14 in water) were used as standard references.9 The integrated fluorescence intensity of each compound was determined from the emission spectra given.
Measurements were performed at five different concentrations. Concentrations were chosen to ensure the absorption value was below 0.1 to avoid re-absorption effects. Integrated fluorescence intensity was plotted as a function of the measured absorbance and a linear fit was calculated. The resultant gradient was then used to calculate the quantum yield, using the equation below: […]
Subscript ST signifies the quantities associated with the quantum yield standard. Subscript X signifies the quantities associated with the novel compound. GradX is the determined gradient associated with the novel compound. GradST is the determined gradient associated with quantum yield standard. η is the refractive index of the solvent used in the fluorescence measurements. η = 1.333 for water, 1.361 for ethanol and 1.331 for methanol.

[4] = Solvatochromism of 13c–13e (emission in various solvents); assay type: physicochemical; conditions: emission in solvents of different polarity
Protocol: Measurements were performed at five different concentrations. […] Integrated fluorescence intensity was plotted as a function of the measured absorbance and a linear fit was calculated. […]
Subscript ST signifies the quantities associated with the quantum yield standard. Subscript X signifies the quantities associated with the novel compound. […]

[5] = design: method as in PMID 30957824; conditions: cited from earlier work
Source text: In combination with fluorescent spectroscopy, α-amino acids have also been used for molecular imaging, providing a method to study and visualise cellular processes in real time.[3] […] Furthermore, their occurrence at multiple sites within a protein can complicate spectroscopic analysis. To overcome these issues, many studies utilise extrinsic fluorescent labels.[4] However, these are typically large chromo ...

[6] = Circular dichroism spectroscopy of modified TrpZip1 peptide; assay type: physicochemical
Protocol: Following successful preparation of the carbazole α-amino acids, these were investigated as structural mimics of tryptophan. The effect of substituting amino acid 13e for a tryptophan residue in a well-characterised designed peptide was studied. The beta hairpin TrpZip1 was chosen as a model of beta structure.[21] An Fmoc-derivative of amino acid 13e was prepared under standard conditions and incorporated into the peptide using SPPS protocols. The resulting peptide, 14 (Table 1) was purified by reverse phase HPLC and characterised using high resolution electrospray ionisation mass spectrometry.

Row | Compound | ε (molar attenuation coefficient) ([2]; MeOH) | λ Abs ([2]; MeOH) [nm] | λ Em ([2]; MeOH) [nm] | λ Em (second wavelength) ([2]; MeOH) [nm] | ε (molar attenuation coefficient) ([2]; Water) | λ Abs ([2]; Water) [nm] | λ Em ([2]; Water) [nm] | Brightness ([3]; MeOH) | Φ F (quantum yield) ([3]; MeOH) | Brightness ([3]; Water) [cm⁻¹ M⁻¹] | Φ F (quantum yield) ([3]; Water) | further results
1 | c1ccc2cc3ccccc3cc2c1 [Anthracene] | – | – | – | – | – | – | – | – | – | – | – | quantum yield of standard [1]: 0.27
2 | Cl.N[C@@H](Cc1ccc2[nH]c3ccccc3c2c1)C(=O)O [amino acid 13a, (2S)-2-Amino-3-(9H-carbazol-3’-yl)propanoic acid hydrochloride] | 16 500 cm^−1 M^−1 | 342 | 350 | 366 | 8800 cm⁻¹ M⁻¹ | 341 | 352 | 5120 cm⁻¹ M⁻¹ | 0.31 | 2460 | 0.28 | λ Em (second wavelength) ([2]; Water): 366 nm
3 | COc1ccc2c(c1)[nH]c1ccc(C[C@H](N)C(=O)O)cc12.Cl [amino acid 13b, (2S)-2-Amino-3-(7-methoxy-9H-carbazol-3’-yl)propanoic acid hydrochloride] | 12 700 cm^−1 M^−1 | 329 | 354 | – | 12 100 cm^−1 M^−1 | 331 | 357 | 4450 cm⁻¹ M⁻¹ | 0.35 | 5200 | 0.43 | –
4 | Cl.N[C@@H](Cc1ccc2[nH]c3ccc4ccccc4c3c2c1)C(=O)O [amino acid 13c, (2S)-2-Amino-3-(7H-benzo[c]carbazol-10-yl)propanoic acid hydrochloride] | 16 100 cm^−1 M^−1 | 351 | 371 | 388 | 10 900 cm^−1 M^−1 | – | 377 | 12 240 cm^−1 M^−1 | 0.76 | 6430 | 0.59 | λ Em (second wavelength) ([2]; Water): 390 nm; solvatochromism [4]: minimal solvatochromism
5 | Cl.N[C@@H](Cc1ccc2[nH]c3cc(C(F)(F)F)ccc3c2c1)C(=O)O [amino acid 13e, (2S)-2-amino-3-(7-trifluoromethyl-9H-carbazol-3’-yl)propanoic acid hydrochloride] | 11 600 cm^−1 M^−1 | – | 365 | 378 | 14 000 cm^−1 M^−1 | 348 | 380 | 700 cm⁻¹ M⁻¹ | 0.06 | 3360 | 0.24 | increase in brightness in water ([3]; water relative to methanol): ~5 fold; ε and quantum yield in water ([3]; water relative to methanol): enhanced in water; solvatochromism [4]: minimal solvatochromism
6 | N#Cc1cccc2[nH]cc(C[C@H](N)C(=O)O)c12 [compound 3, L-4-cyanotryptophan] | – | – | – | – | – | – | – | – | – | – | – | fluorescence lifetime [5]: long fluorescence lifetime
7 | peptide 14: TrpZip1 modified with amino acid 13e (SWTWEGNK-{13e-Thr-Trp-Lys-NH2}; reading uncertain) | – | – | – | – | – | – | – | – | – | – | – | secondary structure ([6]; CD, carbazole amino acid 13e replacing tryptophan in TrpZip1): preserved the original secondary structure; CD maximum ([6]; circular dichroism): 228 nm; CD minimum ([6]; circular dichroism): 214 nm; near-UV CD signal ([6]; circular dichroism, indicative of ordered aromatic side chains): 280–310 nm
